The test concerns Escherichia coli ATCC 25922. The test can be described thus: 50% growth inhibitory concentration (IC50) determination, Iso-Sensitest broth dilution. The format is cell-based. To be noted: strain Escherichia coli ATCC 25922, 10-point broth dilution, optical density at 600 nm over 16 h, read-out: Escherichia coli growth inhibition IC50. The procedure, abridged:
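10-point twofold Iso-Sensitest broth dilution (e.g. 50 to 0.097 μM final) with DMSO stocks, incubated at 35±2° C. Growth followed by OD 600 nm every 20 min over 16 h; IC50 derived from growth inhibition during logarithmic phase.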
A general note: Broth dilution looks for growth in wells or tubes with falling amounts of substance.

The mark [1] stands for this setting: Escherichia coli, ATCC25922, 16 h.

Counter-ions that a name gives are not always drawn. Like-named read-outs stand apart in the source and are kept apart here.

As to `CC(N)COc1cc(F)c2c(c1)CC(CN1CCC3(CC1)CN(c1cnc4c(n1)NC(=O)CO4)C(=O)O3)C2` (stereo not shown) [Example 260, 6-[8-[[6-(2-Aminopropoxy)-4-fluoro-2,3-dihydro-1H-inden-2-yl]methyl]-2-oxo-1-oxa-3,8-diazaspiro[4.5]decan-3-yl]-4H-pyrazino[2,3-b][1,4]oxazin-3-one; formic acid], under setting [1], the IC50 – broadly, the midpoint of a concentration-inhibition curve – is less than 97.7 nM.
Same read-out and setting: in the case of `N#Cc1cccc2c1CC(NCC(O)CC1CN(c3ccc4c(n3)NC(=O)CO4)C(=O)O1)C2` (stereo not shown) [Example 238, 2-[[2-Hydroxy-3-[2-oxo-3-(3-oxo-4H-pyrido[3,2-b][1,4]oxazin-6-yl)-1,3-oxazolidin-5-yl]propyl]amino]-2,3-dihydro-1H-indene-4-carbonitrile hydrochloride] it was 170 nM.
Turning to `N#Cc1cccc2c1CC(NC1CCC3(CC1)CN(c1ccc4c(n1)NC(=O)CO4)C(=O)O3)C2` (single isomer, unassigned; isomer a) [Example 39, 2-[[2-oxo-3-(3-oxo-4H-pyrido[3,2-b][1,4]oxazin-6-yl)-1-oxa-3-azaspiro[4.5]decan-8-yl]amino]-2,3-dihydro-1H-indene-4-carbonitrile, Isomer A; formic acid], the IC50 was found to be 737 nM.
`N#Cc1cccc2c1CC(CNC[C@H](O)[C@@H]1CN(c3ccc4c(c3)NC(=O)CO4)C(=O)O1)C2` (stereo partly drawn) [Example 62, 2-[[[(2S)-2-hydroxy-2-[(5S)-2-oxo-3-(3-oxo-4H-1,4-benzoxazin-6-yl)-1,3-oxazolidin-5-yl]ethyl]amino]methyl]-2,3-dihydro-1H-indene-4-carbonitrile; formic acid]: the IC50 under setting [1] stood at 208 nM.
On the same count and under the same terms, in the case of `N#Cc1cccc2c1CC(N[C@H]1C[C@@H](C3CN(c4ccc5c(n4)NC(=O)CO5)C(=O)O3)C1)C2` (stereo partly drawn) [Example 19, 2-[[cis-3-[2-oxo-3-(3-oxo-4H-pyrido[3,2-b][1,4]oxazin-6-yl)-1,3-oxazolidin-5-yl]cyclobutyl]amino]-2,3-dihydro-1H-indene-4-carbonitrile; formic acid] it was 449 nM; in that of `N#Cc1c(OCC2CCN2)ccc2c1CC(CNCCC1CN(c3ccc4c(n3)NC(=O)CO4)C(=O)O1)C2` (stereo not shown) [Example 137, 5-(azetidin-2-ylmethoxy)-2-[[2-[2-oxo-3-(3-oxo-4H-pyrido[3,2-b][1,4]oxazin-6-yl)-1,3-oxazolidin-5-yl]ethylamino]methyl]-2,3-dihydro-1H-indene-4-carbonitrile; formic acid], 801 nM.
Still for that read-out and setting: in the case of `NC1c2cccc(Cl)c2CC1NCCCC1CN(c2ccc3c(n2)NC(=O)CO3)C(=O)O1` (racemic) [Example 244, 6-[2-oxo-5-[3-[[rac-1,2-trans-1-amino-4-chloro-2,3-dihydro-1H-inden-2-yl]amino]propyl]-1,3-oxazolidin-3-yl]-4H-pyrido[3,2-b][1,4]oxazin-3-one] it was less than 97.7 nM; in that of `N#Cc1cc(OC2CNC2)cc2c1CC(CNCCC1CN(c3ccc4c(n3)NC(=O)CO4)C(=O)O1)C2` (stereo not shown) [Example 190, 6-(azetidin-3-yloxy)-2-[[2-[2-oxo-3-(3-oxo-4H-pyrido[3,2-b][1,4]oxazin-6-yl)-1,3-oxazolidin-5-yl]ethylamino]methyl]-2,3-dihydro-1H-indene-4-carbonitrile; 2,2,2-trifluoroacetic acid], less than 97.7 nM; in that of `O=C1COc2ccc(N3C[C@@H](NC4CC(NC5Cc6cccc(F)c6C5)C4)CC3=O)nc2N1` (stereo partly drawn) [Example 24, 6-[(4S)-4-[[3-[(4-fluoro-2,3-dihydro-1H-inden-2-yl)amino]cyclobutyl]amino]-2-oxopyrrolidin-1-yl]-4H-pyrido[3,2-b][1,4]oxazin-3-one], 1810 nM.
For the compound `NC(=O)COc1cc(F)c2c(c1)CC(CNCC[C@@H]1CN(c3cnc4c(n3)NC(=O)CO4)C(=O)O1)C2` (single isomer, unassigned; isomer b) [Example 382], the IC50 is 158 nM.
Take `N#Cc1cccc2c1CC(CNCCC1CN(c3ccc4c(n3)NC(=O)CS4)C(=O)O1)C2` (stereo not shown) [Example 64, 2-[[2-[2-oxo-3-(3-oxo-4H-pyrido[3,2-b][1,4]thiazin-6-yl)-1,3-oxazolidin-5-yl]ethylamino]methyl]-2,3-dihydro-1H-indene-4-carbonitrile]: under setting [1], the IC50 was less than 97.7 nM.
In the case of `N#Cc1cccc2c1C(O)C(CNCCC1CN(c3ccc4c(n3)NC(=O)CS4)C(=O)O1)C2` (racemic) [Example 152, rac-2,3-trans-3-hydroxy-2-[[2-[2-oxo-3-(3-oxo-4H-pyrido[3,2-b][1,4]thiazin-6-yl)-1,3-oxazolidin-5-yl]ethylamino]methyl]-2,3-dihydro-1H-indene-4-carbonitrile; formic acid], under setting [1], the half-maximal inhibitory concentration (IC50) amounted to 149 nM.
Turning to `Cc1nccc2c1CC(NCCCC1CN(c3ccc4c(n3)NC(=O)CO4)C(=O)O1)C2` (stereo not shown) [Example 94, 6-[5-[3-[(1-methyl-6,7-dihydro-5H-cyclopenta[c]pyridin-6-yl)amino]propyl]-2-oxo-1,3-oxazolidin-3-yl]-4H-pyrido[3,2-b][1,4]oxazin-3-one], the half-inhibitory concentration (IC50) under setting [1] is 485 nM.
On the same count and under the same terms, with `Cc1nc(OCC2CNC2)c(C)c2c1CC(CNCCC1CN(c3ccc4c(n3)NC(=O)CO4)C(=O)O1)C2` (stereo not shown) [Example 184, 6-[5-[2-[[3-(azetidin-3-ylmethoxy)-1,4-dimethyl-6,7-dihydro-5H-cyclopenta[c]pyridin-6-yl]methylamino]ethyl]-2-oxo-1,3-oxazolidin-3-yl]-4H-pyrido[3,2-b][1,4]oxazin-3-one hydrochloride] the figure was 425 nM; with `NC1(COc2cc(F)c3c(c2)CC(CNCCC2CN(c4ccc5c(n4)NC(=O)CO5)C(=O)O2)C3)CC1` (stereo not shown) [Example 160, 6-[5-[2-[[6-[(1-aminocyclopropyl)methoxy]-4-fluoro-2,3-dihydro-1H-inden-2-yl]methylamino]ethyl]-2-oxo-1,3-oxazolidin-3-yl]-4H-pyrido[3,2-b][1,4]oxazin-3-one], less than 97.7 nM.
On the same count and under the same terms, in the case of `N#Cc1c(OCCN2CCOCC2)ccc2c1CC(CNCCC1CN(c3ccc4c(n3)NC(=O)CO4)C(=O)O1)C2` (stereo not shown) [Example 54, 5-(2-morpholin-4-ylethoxy)-2-[[2-[2-oxo-3-(3-oxo-4H-pyrido[3,2-b][1,4]oxazin-6-yl)-1,3-oxazolidin-5-yl]ethylamino]methyl]-2,3-dihydro-1H-indene-4-carbonitrile; formic acid] it was 357 nM; in that of `N#Cc1nc(OCC2(N)CC2)cc2c1CC(CNCCC1CN(c3ccc4c(n3)NC(=O)CO4)C(=O)O1)C2` (stereo not shown) [Example 125], 111 nM; in that of `N#Cc1cccc2c1CC(CN[C@H]1C[C@@H](C3CN(c4ccc5c(n4)NC(=O)CO5)C(=O)O3)C1)C2` (stereo partly drawn) [Example 96, 2-[[[cis-3-[2-oxo-3-(3-oxo-4H-pyrido[3,2-b][1,4]oxazin-6-yl)-1,3-oxazolidin-5-yl]cyclobutyl]amino]methyl]-2,3-dihydro-1H-indene-4-carbonitrile; formic acid], 187 nM.
With `NC1c2cccc(Cl)c2CC1CN1CC(C2CN(c3cnc4c(n3)NC(=O)CO4)C(=O)O2)C1` (racemic) [Example 205, 6-[5-[1-[(rac-1,2-trans-1-amino-4-chloro-2,3-dihydro-1H-inden-2-yl)methyl]azetidin-3-yl]-2-oxo-1,3-oxazolidin-3-yl]-4H-pyrazino[2,3-b][1,4]oxazin-3-one], the IC50 under setting [1] was determined as 123 nM.
The same measure, in the same setting: with `Cc1ncc(F)c2c1CC(NCCCC1CN(c3cnc4c(n3)NC(=O)CO4)C(=O)O1)C2` (stereo not shown) [Example 79, 6-[5-[3-[(4-fluoro-1-methyl-6,7-dihydro-5H-cyclopenta[c]pyridin-6-yl)amino]propyl]-2-oxo-1,3-oxazolidin-3-yl]-4H-pyrazino[2,3-b][1,4]oxazin-3-one] the figure was less than 97.7 nM.
On to `O=C1COc2ccc(N3CC(CCNCC4Cc5cccc(Cl)c5C4)OC3=O)nc2N1` (single isomer, unassigned; isomer a) [Example 6, 6-[5-[2-[(4-chloro-2,3-dihydro-1H-inden-2-yl)methylamino]ethyl]-2-oxo-1,3-oxazolidin-3-yl]-4H-pyrido[3,2-b][1,4]oxazin-3-one, Isomer A], for which the 50% inhibitory concentration (IC50) under setting [1] is less than 97.7 nM.
On the same count and under the same terms, in the case of `N#Cc1cc(OCc2cnc[nH]2)cc2c1CC(CNCCC1CN(c3cnc4c(n3)NC(=O)CO4)C(=O)O1)C2` (stereo not shown) [Example 406, 6-(1H-imidazol-5-ylmethoxy)-2-[[2-[2-oxo-3-(3-oxo-4H-pyrazino[2,3-b][1,4]oxazin-6-yl)-1,3-oxazolidin-5-yl]ethylamino]methyl]-2,3-dihydro-1H-indene-4-carbonitrile; formic acid] it was 139 nM; in that of `Cc1ncc(F)c2c1C[C@@H](CNCC[C@@H]1CN(c3cnc4c(n3)NC(=O)CO4)C(=O)O1)C2` [Example 427, 6-[(5R)-5-[2-[[(6R)-4-Fluoro-1-methyl-6,7-dihydro-5H-cyclopenta[c]pyridin-6-yl]methylamino]ethyl]-2-oxo-1,3-oxazolidin-3-yl]-4H-pyrazino[2,3-b][1,4]oxazin-3-one], less than 97.7 nM.
Same read-out and setting: in the case of `N#CCOc1cc(F)c2c(c1)CC(CNCCC1CN(c3cnc4c(n3)NC(=O)CO4)C(=O)O1)C2` (stereo not shown) [Example 366, 2-[[7-fluoro-2-[[2-[2-oxo-3-(3-oxo-4H-pyrazino[2,3-b][1,4]oxazin-6-yl)-1,3-oxazolidin-5-yl]ethylamino]methyl]-2,3-dihydro-1H-inden-5-yl]oxy]acetonitrile; formic acid] it was 144 nM; in that of `Cc1ncc(F)c2c1CC(CN[C@H]1C[C@H](C3CN(c4cnc5c(n4)NC(=O)CO5)C(=O)O3)C1)C2` (stereo partly drawn) [Example 361, 6-[5-[trans-3-[(4-fluoro-1-methyl-6,7-dihydro-5H-cyclopenta[c]pyridin-6-yl)methylamino]cyclobutyl]-2-oxo-1,3-oxazolidin-3-yl]-4H-pyrazino[2,3-b][1,4]oxazin-3-one], 336 nM.

These data come from patent US20230167127A1, “COMPOUNDS AND THEIR USE IN THE TREATMENT OF BACTERIAL INFECTION” (Hoffmann-La Roche Inc., priority 2020, published 2023).
